Columns and labels:
Format in all cases: in vivo
[1] = system: crabgrass, large (large crabgrass, Digitaria sanguinalis); assay: Test A pre-/postemergence: crabgrass, large
Procedure, shortened: (§1)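 Soil medium was loam blended with sand; treatments pre- and postemergence were applied concurrently, postemergence at one- to two-leaf stage. Approximately ten days in greenhouse preceded visual comparison with untreated controls, scored 0 (no effect) to 100 (complete control).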

[2] = system: ducksalad (Heteranthera limosa); assay: Test B flooded paddy: ducksalad; conditions: Flood, applied to paddy water at 2-leaf stage, visually evaluated after 13 to 15 days
Procedure, shortened: (§2)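 Paddy-water application: seedlings at 2-leaf stage, flood depth 3 cm maintained for the test duration. Evaluation after 13–15 days in the greenhouse by eye relative to controls; 0–100 scale.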

[3] = system: pigweed (Amaranthus retroflexus); assay: Test A pre-/postemergence: pigweed
Procedure, shortened: as §1

[4] = system: foxtail, giant (giant foxtail, Setaria faberii); assay: Test A pre-/postemergence: foxtail, giant
Procedure, shortened: as §1

[5] = system: barnyardgrass (Echinochloa crus-galli); assay: Test A pre-/postemergence: barnyardgrass
Procedure, shortened: as §1

[6] = system: velvetleaf (Abutilon theophrasti); assay: Test A pre-/postemergence: velvetleaf
Procedure, shortened: as §1

[7] = system: barnyardgrass (Echinochloa crus-galli); assay: Test B flooded paddy: barnyardgrass; conditions: Flood, applied to paddy water at 2-leaf stage, visually evaluated after 13 to 15 days
Procedure, shortened: as §2

[8] = system: sedge, umbrella (small-flower umbrella sedge Cyperus difformis); assay: Test B flooded paddy: sedge, umbrella; conditions: Flood, applied to paddy water at 2-leaf stage, visually evaluated after 13 to 15 days
Procedure, shortened: as §2

[9] = system: morningglory (Ipomoea spp.); assay: Test A pre-/postemergence: morningglory
Procedure, shortened: as §1

[10] = system: wheat (Triticum aestivum); assay: Test A pre-/postemergence: wheat
Procedure, shortened: as §1

[11] = system: rice (Oryza sativa); assay: Test B flooded paddy: rice; conditions: Flood, applied to paddy water at 2-leaf stage, visually evaluated after 13 to 15 days
Procedure, shortened: as §2

[12] = system: corn (Zea mays); assay: Test A pre-/postemergence: corn
Procedure, shortened: as §1

[13] = Postemergence, 125 g ai/ha, 0 to 100 scale, 0 is no effect, 100 is complete control
[14] = Postemergence, 500 g ai/ha, visual rating on 0 to 100 scale (0 no effect, 100 complete control), approximately ten days
[15] = Preemergence, 125 g ai/ha, 0 to 100 scale where 0 is no effect and 100 is complete control
[16] = Preemergence, 500 g ai/ha, 0 to 100 scale (0 no effect, 100 complete control)
[17] = Postemergence, 500 g ai/ha, 0 to 100 scale, 0 is no effect, 100 is complete control
[18] = Preemergence, 125 g ai/ha, 0 to 100 scale (0 no effect, 100 complete control)
[19] = Preemergence, 500 g ai/ha, 0 to 100 scale, 0 is no effect, 100 is complete control

COCc1nn(-c2ccc(F)cc2)nc1Oc1ccnc(C(F)(F)F)c1 [Compound 161]
Plant response rating, Crabgrass, Large [1, 13]: 70 | Crabgrass, Large plant response rating [1, 14]: 90 | Plant response rating, Crabgrass, Large [1, 15]: 100 | Plant response rating, Crabgrass, Large [1, 16]: 100 | Plant response rating, Ducksalad (0 to 100 scale, 0 is no effect, 100 is complete control) ([2]; 125 g ai/ha): 0 | Plant response rating, Pigweed [3, 13]: 100 | Pigweed plant response rating [3, 14]: 100 | Plant response rating, Pigweed [3, 15]: 100 | Plant response rating, Pigweed [3, 16]: 100 | Plant response rating, Foxtail, Giant [4, 13]: 60 | Foxtail, Giant plant response rating [4, 14]: 90 | Plant response rating, Foxtail, Giant [4, 15]: 100 | Plant response rating, Foxtail, Giant [4, 16]: 100 | Plant response rating, Barnyardgrass [5, 13]: 30 | Barnyardgrass plant response rating [5, 14]: 70 | Plant response rating, Barnyardgrass [5, 15]: 20 | Plant response rating, Barnyardgrass [5, 16]: 60 | Plant response rating, Velvetleaf [6, 13]: 40 | Velvetleaf plant response rating [6, 14]: 80 | Plant response rating, Velvetleaf [6, 15]: 0 | Plant response rating, Velvetleaf [6, 16]: 50 | Plant response rating, Barnyardgrass (0 to 100 scale, 0 is no effect, 100 is complete control) ([7]; 125 g ai/ha): 0 | Plant response rating, Sedge, Umbrella (0 to 100 scale, 0 is no effect, 100 is complete control) ([8]; 125 g ai/ha): 80 | Plant response rating, Morningglory [9, 13]: 30 | Morningglory plant response rating [9, 14]: 50 | Plant response rating, Morningglory [9, 15]: 10 | Plant response rating, Morningglory [9, 16]: 10 | Plant response rating, Wheat [10, 13]: 10 | Wheat plant response rating [10, 14]: 30 | Plant response rating, Wheat [10, 15]: 0 | Plant response rating, Wheat [10, 16]: 10 | Plant response rating, Rice (0 to 100 scale, 0 is no effect, 100 is complete control) ([11]; 125 g ai/ha): 20 | Plant response rating, Corn [12, 13]: 10 | Corn plant response rating [12, 14]: 30 | Plant response rating, Corn [12, 15]: 10 | Plant response rating, Corn [12, 16]: 10

Cc1nn(-c2ccc(C(F)(F)F)cn2)nc1C(=NO)c1cccc(C(F)(F)F)c1 [Compound 201]
Plant response rating, Crabgrass, Large [1, 13]: 20 | Crabgrass, Large plant response rating [1, 17]: 30 | Plant response rating, Crabgrass, Large [1, 15]: 0 | Plant response rating, Crabgrass, Large [1, 16]: 20 | Plant response rating, Ducksalad (0 to 100 scale, 0 is no effect, 100 is complete control) ([2]; 250 g ai/ha): 0 | Plant response rating, Pigweed [3, 13]: 60 | Pigweed plant response rating [3, 17]: 100 | Plant response rating, Pigweed [3, 15]: 0 | Plant response rating, Pigweed [3, 16]: 10 | Plant response rating, Foxtail, Giant [4, 13]: 0 | Foxtail, Giant plant response rating [4, 17]: 10 | Plant response rating, Foxtail, Giant [4, 15]: 0 | Plant response rating, Foxtail, Giant [4, 16]: 20 | Plant response rating, Barnyardgrass [5, 13]: 0 | Barnyardgrass plant response rating [5, 17]: 10 | Plant response rating, Barnyardgrass [5, 15]: 0 | Plant response rating, Barnyardgrass [5, 16]: 0 | Plant response rating, Velvetleaf [6, 13]: 20 | Velvetleaf plant response rating [6, 17]: 40 | Plant response rating, Velvetleaf [6, 15]: 0 | Plant response rating, Velvetleaf [6, 16]: 0 | Plant response rating, Barnyardgrass (0 to 100 scale, 0 is no effect, 100 is complete control) ([7]; 250 g ai/ha): 0 | Plant response rating, Sedge, Umbrella (0 to 100 scale, 0 is no effect, 100 is complete control) ([8]; 250 g ai/ha): 0 | Plant response rating, Morningglory [9, 13]: 10 | Morningglory plant response rating [9, 17]: 50 | Plant response rating, Morningglory [9, 15]: 0 | Plant response rating, Morningglory [9, 16]: 0 | Plant response rating, Wheat [10, 13]: 0 | Wheat plant response rating [10, 17]: 10 | Plant response rating, Wheat [10, 15]: 0 | Plant response rating, Wheat [10, 16]: 0 | Plant response rating, Rice (0 to 100 scale, 0 is no effect, 100 is complete control) ([11]; 250 g ai/ha): 0 | Plant response rating, Corn [12, 13]: 10 | Corn plant response rating [12, 17]: 20 | Plant response rating, Corn [12, 15]: 0 | Plant response rating, Corn [12, 16]: 0

CCc1nn(-c2ccc(F)cc2)nc1Cc1cccc(C(F)(F)F)c1 [Compound 144]
Crabgrass, Large plant response rating [1, 13]: 50 | Crabgrass, Large plant response rating [1, 14]: 90 | Plant response rating, Crabgrass, Large [1, 15]: 50 | Plant response rating, Crabgrass, Large [1, 16]: 100 | Plant response rating, Ducksalad (0 to 100 scale, 0 is no effect, 100 is complete control) ([2]; 250 g ai/ha): 40 | Plant response rating, Pigweed [3, 13]: 100 | Pigweed plant response rating [3, 14]: 100 | Plant response rating, Pigweed [3, 15]: 50 | Plant response rating, Pigweed [3, 16]: 100 | Foxtail, Giant plant response rating [4, 13]: 30 | Foxtail, Giant plant response rating [4, 14]: 90 | Plant response rating, Foxtail, Giant [4, 15]: 50 | Plant response rating, Foxtail, Giant [4, 16]: 100 | Barnyardgrass plant response rating [5, 13]: 10 | Barnyardgrass plant response rating [5, 14]: 30 | Plant response rating, Barnyardgrass [5, 15]: 0 | Plant response rating, Barnyardgrass [5, 16]: 30 | Plant response rating, Velvetleaf [6, 13]: 40 | Velvetleaf plant response rating [6, 14]: 50 | Plant response rating, Velvetleaf [6, 15]: 0 | Plant response rating, Velvetleaf [6, 16]: 0 | Plant response rating, Barnyardgrass (0 to 100 scale, 0 is no effect, 100 is complete control) ([7]; 250 g ai/ha): 30 | Plant response rating, Sedge, Umbrella (0 to 100 scale, 0 is no effect, 100 is complete control) ([8]; 250 g ai/ha): 80 | Plant response rating, Morningglory [9, 13]: 20 | Morningglory plant response rating [9, 14]: 90 | Plant response rating, Morningglory [9, 15]: 0 | Plant response rating, Morningglory [9, 16]: 0 | Plant response rating, Wheat [10, 13]: 0 | Wheat plant response rating [10, 14]: 20 | Plant response rating, Wheat [10, 15]: 0 | Plant response rating, Wheat [10, 16]: 0 | Plant response rating, Rice (0 to 100 scale, 0 is no effect, 100 is complete control) ([11]; 250 g ai/ha): 20 | Corn plant response rating [12, 13]: 10 | Corn plant response rating [12, 14]: 30 | Plant response rating, Corn [12, 15]: 0 | Plant response rating, Corn [12, 16]: 0

CCc1nn(-c2ccc(F)cc2F)nc1Oc1ccnc(C(F)(F)F)c1 [Compound 178]
Plant response rating, Crabgrass, Large [1, 13]: 90 | Crabgrass, Large plant response rating [1, 17]: 90 | Plant response rating, Crabgrass, Large [1, 15]: 90 | Plant response rating, Crabgrass, Large [1, 16]: 100 | Plant response rating, Ducksalad (0 to 100 scale, 0 is no effect, 100 is complete control) ([2]; 125 g ai/ha): 30 | Plant response rating, Pigweed [3, 13]: 100 | Pigweed plant response rating [3, 17]: 100 | Plant response rating, Pigweed [3, 15]: 100 | Plant response rating, Pigweed [3, 16]: 100 | Plant response rating, Foxtail, Giant [4, 13]: 60 | Foxtail, Giant plant response rating [4, 17]: 90 | Plant response rating, Foxtail, Giant [4, 15]: 90 | Plant response rating, Foxtail, Giant [4, 16]: 100 | Plant response rating, Barnyardgrass [5, 13]: 30 | Barnyardgrass plant response rating [5, 17]: 80 | Plant response rating, Barnyardgrass [5, 15]: 20 | Plant response rating, Barnyardgrass [5, 16]: 100 | Plant response rating, Velvetleaf [6, 13]: 60 | Velvetleaf plant response rating [6, 17]: 100 | Plant response rating, Velvetleaf [6, 15]: 10 | Plant response rating, Velvetleaf [6, 16]: 60 | Plant response rating, Barnyardgrass (0 to 100 scale, 0 is no effect, 100 is complete control) ([7]; 125 g ai/ha): 0 | Plant response rating, Sedge, Umbrella (0 to 100 scale, 0 is no effect, 100 is complete control) ([8]; 125 g ai/ha): 60 | Plant response rating, Morningglory [9, 13]: 90 | Morningglory plant response rating [9, 17]: 100 | Plant response rating, Morningglory [9, 15]: 0 | Plant response rating, Morningglory [9, 16]: 60 | Plant response rating, Wheat [10, 13]: 20 | Wheat plant response rating [10, 17]: 40 | Plant response rating, Wheat [10, 15]: 0 | Plant response rating, Wheat [10, 16]: 10 | Plant response rating, Rice (0 to 100 scale, 0 is no effect, 100 is complete control) ([11]; 125 g ai/ha): 20 | Plant response rating, Corn [12, 13]: 20 | Corn plant response rating [12, 17]: 30 | Plant response rating, Corn [12, 15]: 0 | Plant response rating, Corn [12, 16]: 10

CSc1ccccc1-n1nc(C)c(C(=O)c2cccc(C(F)(F)F)c2)n1 [Compound 6]
Crabgrass, Large plant response rating [1, 13]: 0 | Crabgrass, Large plant response rating [1, 14]: 20 | Plant response rating, Crabgrass, Large [1, 18]: 0 | Plant response rating, Crabgrass, Large [1, 19]: 0 | Plant response rating, Ducksalad (0 to 100 scale, 0 is no effect, 100 is complete control) ([2]; 250 g ai/ha): 0 | Pigweed plant response rating [3, 13]: 0 | Pigweed plant response rating [3, 14]: 30 | Plant response rating, Pigweed [3, 18]: 0 | Plant response rating, Pigweed [3, 19]: 0 | Foxtail, Giant plant response rating [4, 13]: 0 | Foxtail, Giant plant response rating [4, 14]: 10 | Plant response rating, Foxtail, Giant [4, 18]: 0 | Plant response rating, Foxtail, Giant [4, 19]: 0 | Barnyardgrass plant response rating [5, 13]: 0 | Barnyardgrass plant response rating [5, 14]: 0 | Plant response rating, Barnyardgrass [5, 18]: 0 | Plant response rating, Barnyardgrass [5, 19]: 0 | Velvetleaf plant response rating [6, 13]: 0 | Velvetleaf plant response rating [6, 14]: 0 | Plant response rating, Velvetleaf [6, 18]: 0 | Plant response rating, Velvetleaf [6, 19]: 0 | Plant response rating, Barnyardgrass (0 to 100 scale, 0 is no effect, 100 is complete control) ([7]; 250 g ai/ha): 0 | Plant response rating, Sedge, Umbrella (0 to 100 scale, 0 is no effect, 100 is complete control) ([8]; 250 g ai/ha): 0 | Morningglory plant response rating [9, 13]: 0 | Morningglory plant response rating [9, 14]: 0 | Plant response rating, Morningglory [9, 18]: 0 | Plant response rating, Morningglory [9, 19]: 0 | Wheat plant response rating [10, 13]: 0 | Wheat plant response rating [10, 14]: 0 | Plant response rating, Wheat [10, 18]: 0 | Plant response rating, Wheat [10, 19]: 0 | Plant response rating, Rice (0 to 100 scale, 0 is no effect, 100 is complete control) ([11]; 250 g ai/ha): 0 | Corn plant response rating [12, 13]: 0 | Corn plant response rating [12, 14]: 0 | Plant response rating, Corn [12, 18]: 0 | Plant response rating, Corn [12, 19]: 0

From patent US9302999B2, “Substituted triazoles as herbicides” (E. I. DU PONT DE NEMOURS AND COMPANY, priority 2012, dated 2016)
